The values that follow come from patent publication EP0164699A2, “1,2-Beta-methylene-4-androstene and 4,6-androstadiene-3,17-dione” (SCHERING AKTIENGESELLSCHAFT, priority 1984, dated 1985).

The structures appear in SMILES notation.

This assay concerns Aromatase. The assay is described as follows: Aromatase inhibition: reduction of PMSG-stimulated estradiol secretion in rats (serum estradiol by radioimmunoassay). Format: in vivo, Ratten. The settings on record: serum of 20-day-old female rats pretreated 7 times with 100 I.U. PMSG s.c.; test substance injected 1 h before and 8 h after last PMSG; killed 24 h after last PMSG; comparison with substance A. The source says:
Die durch PMSG (Pregnant Mare's Serum Gonadotropin) vermehrte Sekretion von Östradiol kann durch Applikation von Aromatasehemmern vermindert werden.
Versuch und Auswertung wurden wie folgt durchgeführt: • 20 Tage alte weibliche Ratten wurden alle 2 Tage insgesamt 7 mal mit 100 I.U. PMSG subcutan vorbehandelt. Eine Stunde vor und 8 Stunden nach der letzten PMSG-Applikation (d12) erhielten die Tiere die Testsubstanz durch Injektion. 24 Stunden nach der letzten PMSG-Applikation wurden die Tiere getötet. Im Serum wurde dann Östradiol radioimmunologisch bestimmt. In der folgenden Tabelle wird die Östradiolkonzentration in nMol/1 und die Standardabweichung angegeben. [formula]

As to `C[C@]12CC[C@H]3[C@@H](CCC4=CC(=O)[C@H]5CC5[C@@]43C)[C@@H]1CCC2=O` (some centres unmarked) [B, 1,2ß-Methylen-4-androsten-3,17-dion], the Östradiolkonzentration result was “einen stärkeren Abfall der Östradiolkonzentration bewirken als die bekannte Substanz A”.

As for `C[C@]12CC[C@H]3[C@@H](C=CC4=CC(=O)[C@H]5CC5[C@@]43C)[C@@H]1CCC2=O` (some centres unmarked) [C, 1,2ß-Methylen-androsta-4,6-dien-3,17-dion], the Östradiolkonzentration result was “einen stärkeren Abfall der Östradiolkonzentration bewirken als die bekannte Substanz A”.
